Tested on: A549 tumor cells
Test: A549 subcutaneous mouse xenograft model, GRN163L and/or gemcitabine
Assay type: in vivo, mice
Details: A549 s.c. xenograft, 60 days; gemcitabine 100 mg/kg IP, GRN163L 15 mg/kg IP
Procedure: In one exemplary method, gemcitabine is administered in combination with a telomerase-inhibitor oligonucleotide targeted against hTR. […] Groups of 10 mice each were treated in accordance with one of three protocols: (1) Gemcitabine (100 mg/kg, IP) was administered 2 times/week for the first 1.5 weeks, then once weekly for the remainder of the study. […] (3) The two agents were administered together according to the individual-agent protocols.

Q: How did the “tumor growth during the treatment period” value turn out when `Cl.Nc1ccn([C@@H]2O[C@H](CO)[C@@H](O)C2(F)F)c(=O)n1` (single isomer, unassigned) [gemcitabine, 2′-deoxy-2′,2′-difluorocytidine monohydrochloride ((beta)-isomer)] was run?
A: effective in preventing tumor growth

Source: patent publication US7989428B2, “Combined telomerase inhibitor and gemcitabine for the treatment of cancer” (Geron Corporation, priority 2006, dated 2011)
